Laboratory results taken from patent US7115296B2, “N-alkylaspartyl amide derivative and sweetening agent” (Ajinomoto Co., Inc., priority 2001, dated 2006).
Where two headings read alike, the source gives them in different places. Peptide text beside a SMILES is read from it.

Experiments:
[1] = sensory (organoleptic) test of sweetening potency
[2] = times that of sucrose; reported in WO 94/11391; cited from earlier work
physchem = settings: buffer, pH 3
[3] = times the sweetness of sugar, sensory test
[4] = values compared to sweetening potency of a 4% aqueous solution of sucrose

With `COc1ccc(CCCN[C@@H](CC(=O)O)C(=O)N[C@H](C)C(O)CC2CCCCC2)cc1O` (mixture of isomers) [compound 12, N-[3-(3-hydroxy-4-methoxyphenyl)propyl]-α-L-aspartyl N-(1R,2RS)-1-methyl-2-hydroxy-3-cyclohexylpropyl amide] the Sweetening potency [1, 3] was 4000 times and the “Sweetening potency” value [1, 4] was 4000.
In the case of `COC(=O)[C@H](Cc1ccccc1)NC(=O)[C@H](CC(=O)O)NCCC(C)(C)C` [N-[N-(3,3-dimethylbutyl)-L-α-aspartyl]-L-phenylalanine 1-methyl ester], the Sweetening potency [2] is given as 10000 times.
`COC(=O)[C@H](Cc1ccccc1)NC(=O)[C@@H](N)CC(=O)O` [aspartame] (H-Asp-Phe-OMe) gave a half-life (physchem) of ~30 h.
For `CC[C@@H](C[C@H](O)[C@@H](C)NC(=O)[C@H](CC(=O)O)NCCCc1ccc(OC)c(O)c1)c1ccccc1` [compound 1, N-[3-(3-hydroxy-4-methoxyphenyl)propyl]-α-L-aspartyl N-(1R,2S,4S)-1-methyl-2-hydroxy-4-phenylhexyl amide], the Sweetening potency [1, 3] was “approximately 15000 times”, the Sweetening potency ([1]; times the sweetness of sugar, sensory test, listed as Compound No.1) was 15000 times and the “Sweetening potency” value [1, 4] was 15000.
With `CC[C@@H](C[C@H](O)[C@@H](C)NC(=O)[C@H](CC(=O)O)NCCCc1ccc(O)c(OC)c1)c1ccccc1` [compound 2, N-[3-(3-methoxy-4-hydroxyphenyl)propyl]-α-L-aspartyl N-(1R,2S,4S)-1-methyl-2-hydroxy-4-phenylhexyl amide] the Sweetening potency [1, 3] was 10000 times and the “Sweetening potency” value [1, 4] was 10000.
In the case of `CC[C@@H](C[C@H](O)[C@@H](C)NC(=O)[C@H](CC(=O)O)NCCCc1ccc(OC)cc1O)c1ccccc1` [compound 3, N-[3-(2-hydroxy-4-methoxyphenyl)propyl]-α-L-aspartyl N-(1R,2S,4S)-1-methyl-2-hydroxy-4-phenylhexyl amide], the Sweetening potency [1, 3] is reported as 6000 times and the “Sweetening potency” value [1, 4] is reported as 6000.
In the case of `CC[C@@H](C[C@H](O)[C@@H](C)NC(=O)[C@H](CC(=O)O)NCCCc1ccc(O)cc1O)c1ccccc1` [compound 4, N-[3-(2,4-dihydroxyphenyl)propyl]-α-L-aspartyl N-(1R,2S,4S)-1-methyl-2-hydroxy-4-phenylhexyl amide], the Sweetening potency [1, 3] is reported as 10000 times and the “Sweetening potency” value [1, 4] is reported as 10000.
For `CC[C@@H](C[C@H](O)[C@@H](C)NC(=O)[C@H](CC(=O)O)NCCCc1ccc(C)c(O)c1)c1ccccc1` [compound 5, N-[3-(3-hydroxy-4-methylphenyl)propyl]-α-L-aspartyl N-(1R,2S,4S)-1-methyl-2-hydroxy-4-phenylhexyl amide], the Sweetening potency [1, 3] was 6000 times and the “Sweetening potency” value [1, 4] was 6000.
In the case of `CC[C@@H](C[C@H](O)[C@@H](C)NC(=O)[C@H](CC(=O)O)NCCCc1ccc(O)c(C)c1)c1ccccc1` [compound 6, N-[3-(3-methyl-4-hydroxyphenyl)propyl]-α-L-aspartyl N-(1R,2S,4S)-1-methyl-2-hydroxy-4-phenylhexyl amide], the Sweetening potency [1, 3] is reported as 4000 times and the “Sweetening potency” value [1, 4] is reported as 4000.
With `CC[C@@H](C[C@H](O)[C@@H](C)NC(=O)[C@H](CC(=O)O)NCCCc1ccc(O)cc1)c1ccccc1` [compound 7, N-[3-(4-hydroxyphenyl)propyl]-α-L-aspartyl N-(1R,2S,4S)-1-methyl-2-hydroxy-4-phenylhexyl amide] the Sweetening potency [1, 3] was 6000 times and the “Sweetening potency” value [1, 4] was 6000.
In the case of `CC[C@@H](C[C@H](O)[C@@H](C)NC(=O)[C@H](CC(=O)O)NCCCc1ccc(OC)cc1)c1ccccc1` [compound 8, N-[3-(4-methoxyphenyl)propyl]-α-L-aspartyl N-(1R,2S,4S)-1-methyl-2-hydroxy-4-phenylhexyl amide], the Sweetening potency [1, 3] is reported as 3000 times and the “Sweetening potency” value [1, 4] is reported as 3000.
For `CC[C@@H](C[C@H](O)[C@@H](C)NC(=O)[C@H](CC(=O)O)NCCC(C)(C)c1ccc(OC)c(O)c1)c1ccccc1` [compound 9, N-[3-methyl-3-(3-hydroxy-4-methoxyphenyl)butyl]-α-L-aspartyl N-(1R,2S,4S)-1-methyl-2-hydroxy-4-phenylhexyl amide], the Sweetening potency [1, 3] was “approximately 15000 times”, the Sweetening potency ([1]; times the sweetness of sugar, sensory test, listed as Compound No.9) was 15000 times and the “Sweetening potency” value [1, 4] was 15000.
With `CC[C@@H](C[C@H](O)[C@@H](C)NC(=O)[C@H](CC(=O)O)NCCC(C)(C)c1ccc(O)c(C)c1)c1ccccc1` [compound 10, N-[3-methyl-3-(3-methyl-4-hydroxyphenyl)butyl]-α-L-aspartyl N-(1R,2S,4S)-1-methyl-2-hydroxy-4-phenylhexyl amide] the Sweetening potency [1, 3] was 15000 times and the “Sweetening potency” value [1, 4] was 15000.
In the case of `CC[C@H](C[C@H](O)[C@@H](C)NC(=O)[C@H](CC(=O)O)NCCCc1ccc(OC)c(O)c1)c1ccccc1` [compound 11, N-[3-(3-hydroxy-4-methoxyphenyl)propyl]-α-L-aspartyl N-(1R,2S,4R)-1-methyl-2-hydroxy-4-phenylhexyl amide], the Sweetening potency [1, 3] is reported as 4000 times and the “Sweetening potency” value [1, 4] is reported as 4000.
With `COc1ccc(CCCN[C@@H](CC(=O)O)C(=O)N[C@H](C)[C@H](O)CC2CCCCC2)cc1O` [compound 13, N-[3-(3-hydroxy-4-methoxyphenyl)propyl]-α-L-aspartyl N-(1R,2R)-1-methyl-2-hydroxy-3-cyclohexylpropyl amide] the Sweetening potency [1, 3] was 5000 times and the “Sweetening potency” value [1, 4] was 5000.
For `COc1ccc(C(C)(C)CCN[C@@H](CC(=O)O)C(=O)N[C@H](C)[C@H](O)CC2CCCCC2)cc1O` [compound 14, N-[3-methyl-3-(3-hydroxy-4-methoxyphenyl)butyl]-α-L-aspartyl N-(1R,2R)-1-methyl-2-hydroxy-3-cyclohexylpropyl amide], the Sweetening potency [1, 3] was 5000 times and the “Sweetening potency” value [1, 4] was 5000.
With `CC[C@@H](C[C@H](O)[C@@H](C)NC(=O)[C@H](CC(=O)O)NCCC(C)(C)CCO)c1ccccc1` [compound 15, N-(3,3-dimethyl-5-hydroxypentyl)-α-L-aspartyl N-(1R,2S,4S)-1-methyl-2-hydroxy-4-phenylhexyl amide] the Sweetening potency [1, 3] was 6500 times and the “Sweetening potency” value [1, 4] was 6500.
For `CC[C@@H](C[C@H](O)[C@@H](C)NC(=O)[C@H](CC(=O)O)NCCC(C)(C)CCCO)c1ccccc1` [compound 16, N-(3,3-dimethyl-6-hydroxyhexyl)-α-L-aspartyl N-(1R,2S,4S)-1-methyl-2-hydroxy-4-phenylhexyl amide], the Sweetening potency [1, 3] was 4500 times and the “Sweetening potency” value [1, 4] was 4500.
